BindingDB's records for doi:10.1186/1471-2091-15-9 (International Centre for Genetic Engineering and …, 2014)
Counter-ions that a name gives are not always drawn.

Biological target: T1, DNA helicase [35-727] (Plasmodium falciparum, UniProt Q8I3W6)
T1 construct: 35-727
T1 sequence (Q8I3W6 whole entry): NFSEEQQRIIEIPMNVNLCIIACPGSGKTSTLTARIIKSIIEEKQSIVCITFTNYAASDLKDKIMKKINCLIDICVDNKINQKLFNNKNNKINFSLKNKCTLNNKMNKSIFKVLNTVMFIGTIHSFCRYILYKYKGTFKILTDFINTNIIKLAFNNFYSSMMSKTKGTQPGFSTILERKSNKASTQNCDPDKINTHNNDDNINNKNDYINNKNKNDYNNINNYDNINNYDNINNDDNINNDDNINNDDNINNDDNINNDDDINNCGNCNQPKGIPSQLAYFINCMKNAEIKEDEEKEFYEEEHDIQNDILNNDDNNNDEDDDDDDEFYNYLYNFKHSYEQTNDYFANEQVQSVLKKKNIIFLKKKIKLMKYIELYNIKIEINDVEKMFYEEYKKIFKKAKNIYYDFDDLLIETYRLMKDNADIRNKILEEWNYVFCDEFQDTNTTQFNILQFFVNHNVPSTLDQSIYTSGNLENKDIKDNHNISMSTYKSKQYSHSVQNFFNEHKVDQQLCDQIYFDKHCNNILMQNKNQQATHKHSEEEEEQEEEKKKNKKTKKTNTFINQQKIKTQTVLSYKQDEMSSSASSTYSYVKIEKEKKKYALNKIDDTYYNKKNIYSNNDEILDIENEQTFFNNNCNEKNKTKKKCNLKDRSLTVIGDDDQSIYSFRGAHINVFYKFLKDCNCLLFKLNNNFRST
Test: DNA-Dependent ATPase Assay
Conditions: pH 8; 37 °C
Description: The hydrolysis of ATP catalyzed by PfUDN was assayed by measuring the formation of Pi from [γ-32P] ATP. The reaction mixture of 10 μl contained [γ-32P] ATP (specific activity 222 TBq. mmol^−1) and cold ATP (1 mM), ATPase buffer (20 mM Tris-HCl, pH 8.0, 8 mM DTT, 1.0 mM MgCl2, 20 mM KCl and 16 μg/ml BSA), purified PfUDN and 50 ng or 100 ng of M13 mp19 ssDNA. The reaction mixtures were incubated at 37°C for 60 min.

Row | SMILES | IC50
1 | COc1cccc2c1C(=O)c1c(O)c3c(c(O)c1C2=O)C[C@@](O)(C(C)=O)C[C@@H]3O[C@H]1C[C@H](N)[C@H](O)[C@H](C)O1 [(7S,9S)-9-acetyl-7-[(2R,4S,5S,6S)-4-amino-5-hydroxy-6-methyloxan-2-yl]oxy-6,9,11-trihydroxy-4-methoxy-8,10-dihydro-7H-tetracene-5,12-dione;hydrochloride] | 4.4 µM
2 | CC[n+]1c(-c2ccccc2)c2cc(N)ccc2c2ccc(N)cc21 [AB00053825_07] | 3.1 µM
